The experiment concerns the target Acetylcholinesterase (Electrophorus electricus, UniProt O42275). Description: Inhibition of Electrophorus electricus AChE by Ellman's method. For orientation: In Ellman's method for cholinesterases, released thiocholine reacts with DTNB.

Sequence of Acetylcholinesterase (O42275 whole entry): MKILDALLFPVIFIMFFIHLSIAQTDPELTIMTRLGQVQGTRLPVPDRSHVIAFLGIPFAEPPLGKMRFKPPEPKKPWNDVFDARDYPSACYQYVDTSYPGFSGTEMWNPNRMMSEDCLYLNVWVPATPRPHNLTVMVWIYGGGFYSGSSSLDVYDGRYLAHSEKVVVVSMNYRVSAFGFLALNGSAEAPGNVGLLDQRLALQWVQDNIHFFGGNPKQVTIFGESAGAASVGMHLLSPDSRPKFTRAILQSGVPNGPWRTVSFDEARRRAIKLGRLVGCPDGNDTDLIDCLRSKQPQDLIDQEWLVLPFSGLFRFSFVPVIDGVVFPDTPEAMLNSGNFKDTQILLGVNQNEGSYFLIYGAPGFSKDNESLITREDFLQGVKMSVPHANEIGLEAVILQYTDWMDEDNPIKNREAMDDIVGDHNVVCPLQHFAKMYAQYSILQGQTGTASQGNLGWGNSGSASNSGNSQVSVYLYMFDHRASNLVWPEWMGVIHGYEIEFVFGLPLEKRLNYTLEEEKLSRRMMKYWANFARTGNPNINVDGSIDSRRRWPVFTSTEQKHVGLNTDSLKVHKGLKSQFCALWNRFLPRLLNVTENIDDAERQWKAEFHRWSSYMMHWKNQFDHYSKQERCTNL

In general, IC50 refers to the concentration at which inhibition is half-maximal. On to `COc1cc2c(cc1OC)C(=O)C(C(=O)c1ccc(C#N)cc1)C2` (centres undefined), for which the IC50 (read-out: IC50) was 53 µM.
The same measure, in the same setting: the same measure for `COc1cc2c(cc1OC)C(=O)C(C(=O)c1ccc(N(C)C)cc1)C2` (centres undefined): 29.4 µM; for `COc1cc2c(cc1OC)C(=O)C(C(=O)c1cccs1)C2` (centres undefined): 8.6 µM.
Still for that read-out and setting: then `COc1cc2c(cc1OC)C(=O)C(C(=O)c1c(Cl)cccc1Cl)C2` (centres undefined), with 102 µM; and `COc1cc2c(cc1OC)C(=O)C(C(=O)c1cc(OC)c(OC)c(OC)c1)C2` (centres undefined), with 2.7 µM.
Still for that read-out and setting: then `COc1ccc(C(=O)C2Cc3cc(OC)c(OC)cc3C2=O)cc1` (centres undefined), with 6.2 µM; and `COc1cc2c(cc1OC)C(=O)C(C(=O)c1ccc(F)cc1)C2` (centres undefined), with 42 µM.
On to `COc1cc2c(cc1OC)C(=O)C(C(=O)c1ccc(Cl)cc1)C2` (centres undefined), for which the IC50 (read-out: IC50) worked out at 41.2 µM.
Take `COc1cc2c(cc1OC)C(=O)C(C(=O)c1cccc([N+](=O)[O-])c1)C2` (centres undefined): the IC50 entry is given as “Not Active”.
For `COc1ccc(C(=O)C2Cc3cc(OC)c(OC)cc3C2=O)cc1OC` (centres undefined), where the note is “read-out: IC50”, the IC50 turned out to be 4.3 µM.
On the same count and under the same terms, the same measure for `COc1cc2c(cc1OC)C(=O)C(C(=O)c1ccco1)C2` (centres undefined): 9.4 µM.
As to `COc1cc2c(cc1OC)C(=O)C(C(=O)c1ccc(Br)cc1)C2` (centres undefined), the IC50 (read-out: IC50) worked out at 45 µM.
`COc1cc2c(cc1OC)C(=O)C(C(=O)c1ccccc1)C2` (centres undefined): where the note is “read-out: IC50”, the half-maximal inhibitory concentration (IC50) is 21 µM.
On the same count and under the same terms, then `COc1cc2c(cc1OC)C(=O)C(C(=O)c1ccccc1Cl)C2` (centres undefined), with 64 µM.
